Data set [1] relates to carrageenan-induced paw oedema. Nature of the data set: Carrageenan-induced rat paw oedema. The data set is classed as in vivo. Particulars: 50 mg/kg oral; for %Inhibition of paw oedema, 1h / Paw thickness change mean ± SEM, 1h: 1 h after carrageenan; for Paw thickness change mean ± SEM, 1h / Paw thickness change mean ± SEM, 3h / Paw thickness change mean ± SEM, 5h: n = 4; for %Inhibition of paw oedema, 3h / Paw thickness change mean ± SEM, 3h: 3 h after carrageenan; for %Inhibition of paw oedema, 5h / Paw thickness change mean ± SEM, 5h: 5 h after carrageenan. As to the method:
Female wister rats (150-200 g) were used in this study. The animals were kept at controlled conditions (temperature 23 ± 2 °C, humidity 60 ± 10%) and a 12/12-h light/dark cycle with access to food and water. All procedures relating to animal care and treatments were performed according to protocols approved by the Research Ethical Committee of Faculty of Pharmacy Beni-Suef University (2014-Beni-Suef, Egypt). The anti-inflammatory activity of the synthesised compounds was determined in vivo by […]-induced paw oedema method in rats[49]. Rats were divided into 21 groups of four animals each, and then, they were fasted overnight with free access to water before the experiment. Before any drug administration, thickness of the left hind paw of each rat was measured in millimetres. Group 1 served as a control and administered the vehicle (2.5% Tween 80).
(In general: In the carrageenan paw model, swelling and tenderness develop within hours.)

The test system of a further data set is rat's gastric tissue. The data set is described as follows: Histopathological investigation of stomach. Format: in vivo. Particulars: haematoxylin and eosin, after ulcerogenic liability dosing. The procedure: Whole rats stomach were collected, selected stomach samples from each rat were fixed in 10% neutral buffered formalin for 48 h and routinely processed for paraffin embedding. 5 μm Thickness sections were obtained then stained with haematoxylin and eosin for histopathological evaluation.

Data set [2] relates to gastric mucosa (ulcer number, ulcer index). Nature of the data set: Ulcerogenic liability. The data set is classed as in vivo, rat. Particulars: 50 mg/kg oral, three successive days, rats; for Ulcer index: sum of % incidence, average severity and average number of ulcers. The procedure:
Female wister rats (150–200 g) were used in this study. The animals were kept at controlled conditions (temperature 23 ± 2 °C, humidity 60 ± 10%) and a 12/12-h light/dark cycle with access to food and water. All procedures relating to animal care and treatments were performed according to protocols approved by the Research Ethical Committee of Faculty of Pharmacy Beni-Suef University (2014-Beni-Suef, Egypt).
[…]. Forty-eight rats were used in this study, divided into 12 groups and fasted for 18 h before drug administration. The control group received the vehicle (2.5% Tween 80). Other groups received test compounds, celecoxib or indomethacin at a dose of 50 mg/kg, then animals were fed after 2 h. Rats were given the specified dose orally for three successive days. Rats were sacrificed after 2 h of the last dose, then the stomach of each rat was removed and opened along the greater curvature for determination of the ulcer number and ulcer index according to the reported method.

A further data set deals with T1, ovine COX-1 (Ovis aries, UniProt P05979).
T1 sequence (P05979 25-600): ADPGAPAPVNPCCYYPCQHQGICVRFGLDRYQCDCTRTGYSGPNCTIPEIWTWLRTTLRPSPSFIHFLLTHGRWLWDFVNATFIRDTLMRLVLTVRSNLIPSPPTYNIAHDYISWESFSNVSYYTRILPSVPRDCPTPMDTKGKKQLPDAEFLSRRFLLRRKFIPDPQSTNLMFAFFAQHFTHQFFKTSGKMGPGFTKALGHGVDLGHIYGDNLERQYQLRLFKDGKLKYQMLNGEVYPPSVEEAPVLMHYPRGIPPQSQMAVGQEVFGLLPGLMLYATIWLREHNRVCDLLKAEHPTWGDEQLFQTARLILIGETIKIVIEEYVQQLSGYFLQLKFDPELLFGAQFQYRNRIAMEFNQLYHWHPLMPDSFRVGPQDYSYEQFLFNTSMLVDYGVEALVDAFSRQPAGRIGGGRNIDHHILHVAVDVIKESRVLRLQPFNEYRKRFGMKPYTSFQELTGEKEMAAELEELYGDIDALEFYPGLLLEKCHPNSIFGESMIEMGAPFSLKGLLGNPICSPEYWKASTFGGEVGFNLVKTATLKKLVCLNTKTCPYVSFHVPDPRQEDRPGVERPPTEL
Nature of the data set: In vitro COX-1 inhibition assay (EIA kit, Cayman).

Another data set has as its target T2, ovine COX-2 (Ovis aries, UniProt P79208).
T2 sequence (P79208 17-603): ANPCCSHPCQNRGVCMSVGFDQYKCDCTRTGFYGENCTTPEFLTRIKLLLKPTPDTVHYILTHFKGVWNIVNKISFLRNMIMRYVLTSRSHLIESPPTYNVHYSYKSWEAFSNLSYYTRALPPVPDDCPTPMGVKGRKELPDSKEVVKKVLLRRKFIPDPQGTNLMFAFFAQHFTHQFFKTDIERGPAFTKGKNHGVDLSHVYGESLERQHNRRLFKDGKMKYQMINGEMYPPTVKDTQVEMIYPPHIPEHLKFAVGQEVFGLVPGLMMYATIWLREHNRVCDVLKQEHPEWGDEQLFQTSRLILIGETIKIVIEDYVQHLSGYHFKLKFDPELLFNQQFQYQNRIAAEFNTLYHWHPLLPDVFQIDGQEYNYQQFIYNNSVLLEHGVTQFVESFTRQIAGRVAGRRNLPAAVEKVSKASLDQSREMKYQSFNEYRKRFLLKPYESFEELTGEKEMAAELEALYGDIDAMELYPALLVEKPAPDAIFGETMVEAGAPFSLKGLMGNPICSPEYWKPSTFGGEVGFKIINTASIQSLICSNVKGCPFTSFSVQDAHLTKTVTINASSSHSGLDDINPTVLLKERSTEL
The data set is described as follows: In vitro COX-2 inhibition assay (EIA kit, Cayman). Particulars: for IC50: IC50 COX-2, ovine COX-2, mean of two determinations; for SI, COX-2 selectivity index (COX-1 IC50/COX-2 IC50): ovine enzymes.

In data set [3] the test system is latency time of pain response. The data set is described as follows: Hot plate method (central analgesic activity). Format: in vivo. The settings on record: 10 mg/kg oral, mice, hot plate 55 °C, after 60 min. As to the method:
This method was used to evaluate the central analgesic activity by determination of the delay in the latency time of pain response. […] After 60 min, the animals were placed on a hot plate maintained at 55 ± 0.5 °C. The reaction time was recorded as the time taken by the animals to […] or lick the fore or hind paw or jump off the plate.
(Hot-plate and tail-flick tests time the reaction to a heat stimulus.)

This note sets out measurements from article PMC6445242, “Novel tetrazole and cyanamide derivatives as inhibitors of cyclooxygenase-2 enzyme: design, synthesis, anti-inflammatory evaluation, ulcerogenic liability and docking study” (Journal of Enzyme Inhibition and Medicinal Chemistry, 2017).

Entries after “also recorded” stand apart in the source; their conditions may differ. Marks after values point to notes of the source that are not given here.

Protocol for ovine COX-1: (§1) The peroxidase activity of cyclooxygenase enzyme isoforms was measured using the COX activity assay kit. The ability of the test compounds to inhibit both ovine COX-1 and COX-2 enzymes was explored in vitro using a colorimetric enzyme immunoassay (EIA) kit. The appearance of oxidised N,N,N′,N′-tetramethyl-p-phenylenediamine (TMPD) was monitored at 590 nm. The kit includes isozyme-specific inhibitors for distinguishing COX-2 activity from that of COX-1.
Protocol for ovine COX-2: as §1

With `Cc1ccc(-c2cc(C(F)(F)F)nn2-c2ccc(S(N)(=O)=O)cc2)cc1` [Celecoxib, reference compound], in data set [1], the “%Inhibition of paw oedema, 1h” value is 76%; the “Paw thickness change mean ± SEM, 1h” value is recorded as 0.38 ± 0.03 mm; the “%Inhibition of paw oedema, 3h” value is on record as 66%; the “Paw thickness change mean ± SEM, 3h” value is recorded as 0.58 ± 0.11 mm. Besides, in data set [1], the “%Inhibition of paw oedema, 5h” value is given as 19% and the “Paw thickness change mean ± SEM, 5h” value turned out to be 1.08 ± 0.13 mm. Moreover, the “Histopathological findings in stomach” value in the data set on rat's gastric tissue is “thickening and hyalinosis of basement membrane with lymphocytic infiltration and minimal congested submucosal blood capillaries”. Also, in data set [2], the “Average number of ulcers” value is listed as 0.50 and the Ulcer index is reported as 0.50.

`COc1ccc(-c2cc(-c3ccc(-n4cnnn4)cc3)nc(N)c2C#N)cc1OC` [Compound 4c, 6-[4-(1H-Tetrazol-1-yl)phenyl]-2-amino-4-(3,4-dimethoxyphenyl)nicotinonitrile] gave a melting point of 230 to 232 °C. Moreover, in data set [1], the “Paw thickness change mean ± SEM, 1h” value was 0.83 ± 0.15 mm; the “%Inhibition of paw oedema, 3h” value was 58%; the “Paw thickness change mean ± SEM, 3h” value was 0.70 ± 0.11 mm; the “%Inhibition of paw oedema, 5h” value worked out at 8%. Further, the “Paw thickness change mean ± SEM, 5h” value in data set [1] was found to be 1.23 ± 0.11 mm. Moreover, in the data set with rat's gastric tissue, the “Histopathological findings in stomach” value was “mucous degeneration in gastric glandular epithelium reach to coagulative necrosis”. The molecule also came in with an IC50 against ovine COX-1 of 16 µM. For the same molecule, on ovine COX-2, the IC50 came to 0.38 µM and the “SI, COX-2 selectivity index (COX-1 IC50/COX-2 IC50)” value worked out at 42.02. In data set [2], the “Average number of ulcers” value is listed as 1.75 and the Ulcer index was determined as 1.75.

In turn, `N#Cc1c(-c2ccccc2)cc(-c2ccc(-n3cnnn3)cc2)[nH]c1=O` [Compound 5a, 6-[4-(1H-Tetrazol-1-yl)phenyl]-2-oxo-4-phenyl-1,2-dihydropyridine-3-carbonitrile] had a melting point of 281 to 283 °C. Further, in data set [1], the “%Inhibition of paw oedema, 1h” value was 61%; the “Paw thickness change mean ± SEM, 1h” value came to 0.61 ± 0.08 mm; the “%Inhibition of paw oedema, 3h” value is 54%; the “Paw thickness change mean ± SEM, 3h” value stood at 0.63 ± 0.18 mm. Also, in data set [1], the “%Inhibition of paw oedema, 5h” value was 61% and the “Paw thickness change mean ± SEM, 5h” value stood at 0.53 ± 0.09 mm. Moreover, the “Histopathological findings in stomach” value with rat's gastric tissue is given as “all layers of stomach were more or less normal; also recorded: most preferable compound with minimal drug effect on tissue”. The molecule also came in with a half-maximal inhibitory concentration (IC50) on ovine COX-1 of 7.09 µM. Also, at ovine COX-2, the 50% inhibitory concentration (IC50) was determined as 0.18 µM and the “SI, COX-2 selectivity index (COX-1 IC50/COX-2 IC50)” value came to 39.38. In addition, in data set [2], the “Average number of ulcers” value is given as 0.75 and the Ulcer index stood at 1.25.

Take `COc1cc(-c2cc(-c3ccc(-n4cnnn4)cc3)[nH]c(=O)c2C#N)cc(OC)c1OC` [Compound 5f, 6-[4-(1H-Tetrazol-1-yl)phenyl]-4-(3,4,5-trimethoxyphenyl)-2-oxo-1,2-dihydropyridine-3-carbonitrile]: the melting point is > 300 °C. Also, in data set [1], the “%Inhibition of paw oedema, 1h” value was determined as 79%; the “Paw thickness change mean ± SEM, 1h” value came to 0.33 ± 0.09 mm; the “%Inhibition of paw oedema, 3h” value was determined as 36%; the “Paw thickness change mean ± SEM, 3h” value is on record as 1.08 ± 0.10 mm. In data set [1], the “%Inhibition of paw oedema, 5h” value was determined as 30% and the “Paw thickness change mean ± SEM, 5h” value is 0.93 ± 0.15 mm. Further, the “Histopathological findings in stomach” value in the data set on rat's gastric tissue is “affect only muscular layer of the stomach by causing corrugation and hyalinosis in some muscle bundles and reach to coagulative necrosis”. Also, half-maximal inhibition against ovine COX-1 (IC50) was put at 6.45 µM. Also, the “SI, COX-2 selectivity index (COX-1 IC50/COX-2 IC50)” value on ovine COX-2 is given as 46.07. Further, the “Central analgesic activity (delay in latency time)” value in data set [3] was “potent analgesic activities”. Moreover, in data set [2], the “Average number of ulcers” value was found to be 1.25 and the Ulcer index is given as 1.25.

`COc1ccc(C2CC(c3ccc(-n4cnnn4)cc3)=NN2c2ccc(S(C)(=O)=O)cc2)cc1OC` (centres unmarked) [Compound 8a, 1-{4-[5-(3,4-Dimethoxyphenyl)-1-(4-(methanesulphonyl)phenyl]-4,5-dihydro-1H-pyrazol-3-yl)phenyl}-1H-tetrazole]: in data set [1], the “%Inhibition of paw oedema, 1h” value is 71–75%; the “%Inhibition of paw oedema, 3h” value is 52%; the “Paw thickness change mean ± SEM, 3h” value came to 0.89 ± 0.19 mm; the “%Inhibition of paw oedema, 5h” value turned out to be 15%. Besides, the “Paw thickness change mean ± SEM, 5h” value in data set [1] was 1.13 ± 0.11 mm. Moreover, the “Histopathological findings in stomach” value in the data set with rat's gastric tissue was “some areas of glandular epithelium were more or less normal associated with sever congested blood capillaries and eosinophilic infiltrations in submucosa”. The same molecule showed a half-inhibitory concentration (IC50) on ovine COX-1 of 8.67 µM. In addition, the IC50 against ovine COX-2 was determined as 0.32 µM. Further, the “Central analgesic activity (delay in latency time)” value in data set [3] is recorded as “potent analgesic activities”. In data set [2], the “Average number of ulcers” value was 1.50.

In the case of `COc1cc(C2CC(c3ccc(-n4cnnn4)cc3)=NN2c2ccc(S(N)(=O)=O)cc2)cc(OC)c1OC` (centres unmarked) [Compound 9b, 4-{3-[4-(1H-Tetrazol-1-yl)phenyl]-5-(3,4,5-trimethoxyphenyl)-4,5-dihydro-1H-pyrazol-1-yl)benzenesulphonamide], in data set [1], the “%Inhibition of paw oedema, 1h” value is reported as 75%; the “Paw thickness change mean ± SEM, 1h” value is recorded as 0.40 ± 0.11 mm; the “%Inhibition of paw oedema, 3h” value came to 40%; the “Paw thickness change mean ± SEM, 3h” value was 1.00 ± 0.16 mm. For the same molecule, in data set [1], the “%Inhibition of paw oedema, 5h” value is 12% and the “Paw thickness change mean ± SEM, 5h” value turned out to be 1.18 ± 0.20 mm. The “Histopathological findings in stomach” value with rat's gastric tissue is “Mucous degeneration of glandular epithelium of gastric mucosa, and lymphocytic infiltration and mild congestion in submucosa”. The molecule also had a half-inhibitory concentration (IC50) against ovine COX-1 of 7.37 µM. The molecule also displayed a concentration for half-maximal inhibition (IC50) against ovine COX-2 of 0.21 µM. Moreover, the “Average number of ulcers” value in data set [2] came out at 0.25.

In the case of `COc1ccc2c(c1)c(CC(=O)O)c(C)n2C(=O)c1ccc(Cl)cc1` [Indomethacin, reference compound], in the data set with rat's gastric tissue, the “Histopathological findings in stomach” value was “Complete disruption of protective mucosal layer”. Also, in data set [2], the “Average number of ulcers” value was 14.25*** and the Ulcer index is listed as 22.50***. Also, the Ulcer index in data set [2] (listed as indomethacin) is on record as 22.5.

As a reminder, the melting point is the temperature of the solid-liquid transition. For orientation: IC50 means the concentration that gives 50% inhibition. A low value points to greater potency in that assay.
